The structures appear in SMILES notation. Several values for one entry are separate records, joined by “and”; a condition that tells them apart may be missing. Identical values can stand only once. Inconclusive results and toxic doses are left out.

The source of these data is PubChem BioAssay AID256 (DTP/NCI, 2004).

The test system of this assay is CD2F1 mice, L1210 leukemia ip, survival T/C. Description: NCI In Vivo Anticancer Drug Screen. Data for tumor model L1210 Leukemia (intraperitoneal) in CD2F1 (CDF1) mice. The conditions noted are these: higher = longer survival. A digest of the protocol: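 Transplantable tumor in mice; compound-treated vs vehicle-treated groups. Read-out = treated/control ratio of the measured endpoint.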

Setting [1] is: endpoint: mean survival time, dose: 100.0 mg/kg/injection, schedule: Q04DX003 (ip), vehicle: saline with Tween-80.
Where [2] appears, read: endpoint: mean survival time, dose: 200.0 mg/kg/injection, schedule: Q04DX003 (ip), vehicle: saline with Tween-80.
The mark [3] stands for this setting: endpoint: mean survival time, dose: 400.0 mg/kg/injection, schedule: Q04DX003 (ip), vehicle: saline with Tween-80.
Setting [4] is: endpoint: mean survival time, dose: 200.0 mg/kg/injection, schedule: Q01DX009 (ip), vehicle: saline with Tween-80.
Where [5] appears, read: endpoint: mean survival time, dose: 100.0 mg/kg/injection, schedule: Q04DX003 (ip), vehicle: saline.
The mark [6] stands for this setting: endpoint: mean survival time, dose: 200.0 mg/kg/injection, schedule: Q04DX003 (ip), vehicle: saline.
[7] abbreviates: endpoint: mean survival time, dose: 100.0 mg/kg/injection, schedule: Q01DX001 (ip), vehicle: saline.
The mark [8] stands for this setting: endpoint: mean survival time, dose: 200.0 mg/kg/injection, schedule: Q01DX001 (ip), vehicle: saline.
[9] abbreviates: endpoint: mean survival time, dose: 400.0 mg/kg/injection, schedule: Q01DX001 (ip), vehicle: saline.
Where [10] appears, read: endpoint: mean survival time, dose: 100.0 mg/kg/injection, schedule: Q01DX009 (ip), vehicle: saline with Tween-80.
Where [11] appears, read: endpoint: mean survival time, dose: 6.25 mg/kg/injection, schedule: Q01DX009 (ip), vehicle: saline with Tween-80.
Where [12] appears, read: endpoint: mean survival time, dose: 12.5 mg/kg/injection, schedule: Q01DX009 (ip), vehicle: saline with Tween-80.
Where [13] appears, read: endpoint: mean survival time, dose: 25.0 mg/kg/injection, schedule: Q01DX009 (ip), vehicle: saline with Tween-80.
Where [14] appears, read: endpoint: mean survival time, dose: 50.0 mg/kg/injection, schedule: Q01DX009 (ip), vehicle: saline with Tween-80.

Turning to `CC(C)OC(=O)Nc1ccccn1`, the T/C (endpoint: mean survival time, dose: 100.0 mg/kg/injection, schedule: Q04DX002 (ip), vehicle: saline with Tween-80) was 100 % of control; the T/C (endpoint: mean survival time, dose: 200.0 mg/kg/injection, schedule: Q04DX002 (ip), vehicle: saline with Tween-80) was 100 % of control; the T/C (endpoint: mean survival time, dose: 400.0 mg/kg/injection, schedule: Q04DX002 (ip), vehicle: saline with Tween-80) was 104 % of control.
Take `O=C(C(Cl)Cl)N(O)c1ccccc1OCc1ccccc1`: the T/C under setting [1] is 105 % of control, the T/C under setting [2] was 103 % of control and the T/C under setting [3] was 103 % of control.
For `NC(=S)N/N=C/c1ccccc1N`, the T/C is 103 % of control (endpoint: mean survival time, dose: 100.0 mg/kg/injection, schedule: Q04DX003 (ip), vehicle: acetone); 97 % of control (endpoint: mean survival time, dose: 200.0 mg/kg/injection, schedule: Q04DX003 (ip), vehicle: acetone); 104 % of control (endpoint: mean survival time, dose: 400.0 mg/kg/injection, schedule: Q04DX003 (ip), vehicle: acetone).
Take `C=CCOCC(O)C[As](=O)(O)c1ccc(OC)cc1` (configuration not stated): the T/C was 92 % of control (endpoint: mean survival time, dose: 6.25 mg/kg/injection, schedule: Q04DX003 (ip), vehicle: saline with Tween-80); 101 % of control (endpoint: mean survival time, dose: 12.5 mg/kg/injection, schedule: Q04DX003 (ip), vehicle: saline with Tween-80); 98 % of control (endpoint: mean survival time, dose: 25.0 mg/kg/injection, schedule: Q04DX003 (ip), vehicle: saline with Tween-80).
`O=C1c2c(Cl)c(Cl)c(Cl)c(Cl)c2C(=O)N1O`: the T/C was 98 % of control under setting [1], 98 % of control under setting [4], 98 % of control under setting [2] and 101 % of control under setting [3].
For `Nc1ccn(C2OC(COP(=O)(O)Oc3ccccc3)C(O)C2O)c(=O)n1` (configuration not stated), the T/C (endpoint: mean survival time, dose: 12.5 mg/kg/injection, schedule: Q01DX009 (ip), vehicle: suspension in saline) is 162 % of control; the T/C (endpoint: mean survival time, dose: 25.0 mg/kg/injection, schedule: Q01DX009 (ip), vehicle: suspension in saline) is 194 % of control; the T/C (endpoint: mean survival time, dose: 50.0 mg/kg/injection, schedule: Q01DX009 (ip), vehicle: suspension in saline) is 202 % of control; the T/C (endpoint: mean survival time, dose: 100.0 mg/kg/injection, schedule: Q01DX009 (ip), vehicle: suspension in saline) was 223 % of control.
For the compound `O=C(Nc1ccc(Cl)c(Cl)c1)OCC#CCOC(=O)Nc1ccc(Cl)c(Cl)c1`, the T/C is, setting by setting: under setting [5], 95 % of control; under setting [6], 95 % of control; (endpoint: mean survival time, dose: 400.0 mg/kg/injection, schedule: Q04DX003 (ip), vehicle: saline) 91 % of control.
Regarding `CCN=C(N)/N=C(\N)C(Cl)(Cl)Cl`, the T/C under setting [7] is 101 % of control, the T/C under setting [8] is 96 % of control and the T/C under setting [9] is 90 % of control.
`CC(C)(N)C(=O)O`: the T/C is, setting by setting: under setting [10], 100 % of control; under setting [4], 101 % of control; (endpoint: mean survival time, dose: 400.0 mg/kg/injection, schedule: Q01DX009 (ip), vehicle: saline with Tween-80) 103 % of control.
Regarding `Cc1ccc(C(=O)c2ccccc2Cl)cc1`, the T/C was 91 % of control (endpoint: mean survival time, dose: 15.0 mg/kg/injection, schedule: Q01DX009 (ip), vehicle: Klucel (hydroxypropylcellulose) (HPC)); 87 % of control (endpoint: mean survival time, dose: 30.0 mg/kg/injection, schedule: Q01DX009 (ip), vehicle: Klucel (hydroxypropylcellulose) (HPC)); 87 % of control (endpoint: mean survival time, dose: 60.0 mg/kg/injection, schedule: Q01DX009 (ip), vehicle: Klucel (hydroxypropylcellulose) (HPC)).
Consider `COC1=C(OC)C(=O)C(C/C=C(\C)CC/C=C(\C)CC/C=C(\C)CC/C=C(\C)CC/C=C(\C)CC/C=C(\C)CC/C=C(\C)CC/C=C(\C)CC/C=C(\C)CCC=C(C)C)=C(C)C1=O`, for which the T/C is 116 % of control and 97 % of control under setting [11]; 98 % of control and 100 % of control under setting [12]; 94 % of control and 100 % of control under setting [13]; 97 % of control and 106 % of control under setting [14]; 96 % of control under setting [7]; 94 % of control and 102 % of control under setting [10]. In addition, the T/C runs as follows: under setting [8], 92 % of control; under setting [4], 97 % of control and 100 % of control; under setting [9], 94 % of control.
With `O=C1C=CC(=O)c2c1ccc1ccccc21`, the T/C reads like this: (endpoint: mean survival time, dose: 12.5 mg/kg/injection, schedule: Q01DX001 (ip), vehicle: acetone) 104 % of control; (endpoint: mean survival time, dose: 25.0 mg/kg/injection, schedule: Q01DX001 (ip), vehicle: acetone) 105 % of control; (endpoint: mean survival time, dose: 50.0 mg/kg/injection, schedule: Q01DX001 (ip), vehicle: acetone) 105 % of control.
For `Nc1nc2c(ncn2-c2ccc(OCCNC(=O)Nc3cc(S(=O)(=O)F)ccc3Cl)cc2)c(=O)[nH]1` (tested in a mixture with another compound), the T/C is, setting by setting: (endpoint: mean survival time, dose: 75.0 mg/kg/injection, schedule: Q01DX001 (ip), vehicle: saline with Tween-80) 92 % of control; (endpoint: mean survival time, dose: 150.0 mg/kg/injection, schedule: Q01DX001 (ip), vehicle: saline with Tween-80) 95 % of control.
For `Cc1cccc(N/N=C2\CCSc3ccccc32)c1`, the T/C is, setting by setting: (endpoint: mean survival time, dose: 100.0 mg/kg/injection, schedule: Q01DX001 (ip), vehicle: saline with Tween-80) 100 % of control; (endpoint: mean survival time, dose: 200.0 mg/kg/injection, schedule: Q01DX001 (ip), vehicle: saline with Tween-80) 100 % of control; (endpoint: mean survival time, dose: 400.0 mg/kg/injection, schedule: Q01DX001 (ip), vehicle: saline with Tween-80) 103 % of control.
Consider `COc1ccc2c(c1)CCn1c(C)c(COC(=O)NC(C)C)c(COC(=O)NC(C)C)c1-2`, for which the T/C was 120 % of control (endpoint: median survival time, dose: 3.12 mg/kg/injection, schedule: Q01DX009 (ip), vehicle: distilled water + Tween-80); 123 % of control (endpoint: median survival time, dose: 3.13 mg/kg/injection, schedule: Q01DX009 (ip), vehicle: distilled water + Tween-80); 114 % of control (endpoint: median survival time, dose: 6.25 mg/kg/injection, schedule: Q01DX009 (ip), vehicle: distilled water + Tween-80); 152 % of control and 157 % of control (endpoint: median survival time, dose: 25.0 mg/kg/injection, schedule: Q01DX009 (ip), vehicle: distilled water + Tween-80); 114 % of control (endpoint: median survival time, dose: 50.0 mg/kg/injection, schedule: Q01DX009 (ip), vehicle: distilled water + Tween-80).
`N#CC(C#N)=NNc1ccc2cn[nH]c2c1`: the T/C was 98 % of control (endpoint: median survival time, dose: 12.5 mg/kg/injection, schedule: Q01DX009 (ip), vehicle: Klucel (hydroxypropylcellulose) (HPC)); 101 % of control (endpoint: median survival time, dose: 25.0 mg/kg/injection, schedule: Q01DX009 (ip), vehicle: Klucel (hydroxypropylcellulose) (HPC)); 111 % of control (endpoint: median survival time, dose: 50.0 mg/kg/injection, schedule: Q01DX009 (ip), vehicle: Klucel (hydroxypropylcellulose) (HPC)); 115 % of control (endpoint: median survival time, dose: 100.0 mg/kg/injection, schedule: Q01DX009 (ip), vehicle: Klucel (hydroxypropylcellulose) (HPC)).
In the case of `CCOC(=O)c1c([N+](=O)[O-])cnn1C1OC(COC(C)=O)C(OC(C)=O)C1OC(C)=O` (configuration not stated), the T/C runs as follows: (endpoint: median survival time, dose: 8.75 mg/kg/injection, schedule: Q01DX005 (ip), vehicle: distilled water + Tween-80) 104 % of control; (endpoint: median survival time, dose: 17.5 mg/kg/injection, schedule: Q01DX005 (ip), vehicle: distilled water + Tween-80) 107 % of control; (endpoint: median survival time, dose: 35.0 mg/kg/injection, schedule: Q01DX005 (ip), vehicle: distilled water + Tween-80) 96 % of control; (endpoint: median survival time, dose: 70.0 mg/kg/injection, schedule: Q01DX005 (ip), vehicle: distilled water + Tween-80) 101 % of control; (endpoint: median survival time, dose: 140.0 mg/kg/injection, schedule: Q01DX005 (ip), vehicle: distilled water + Tween-80) 101 % of control.
Turning to `NN=C(c1ccccc1)c1ccccc1`, the T/C (endpoint: mean survival time, dose: 150.0 mg/kg/injection, schedule: Q04DX003 (ip), vehicle: Klucel (hydroxypropylcellulose) (HPC)) was 93 % of control; the T/C (endpoint: mean survival time, dose: 225.0 mg/kg/injection, schedule: Q04DX003 (ip), vehicle: Klucel (hydroxypropylcellulose) (HPC)) was 95 % of control; the T/C (endpoint: mean survival time, dose: 335.0 mg/kg/injection, schedule: Q04DX003 (ip), vehicle: Klucel (hydroxypropylcellulose) (HPC)) was 98 % of control.
As for `CC(=O)c1cc(Br)cc(Br)c1O`, the T/C was 96 % of control under setting [7], 100 % of control under setting [8] and 96 % of control under setting [9].
Turning to `C=C(C)[C@@H]1CCc2c(O)c(O)c(=O)cc(C)c2C1`, the T/C is, setting by setting: (endpoint: mean survival time, dose: 3.12 mg/kg/injection, schedule: Q01DX009 (ip), vehicle: saline with Tween-80) 89 % of control; under setting [11], 96 % of control; under setting [12], 93 % of control; under setting [13], 95 % of control; under setting [14], 106 % of control; under setting [10], 108 % of control.
Turning to `CCOCCc1ccncc1`, the T/C is, setting by setting: under setting [5], 101 % of control; under setting [6], 104 % of control.
